{
  "source": "paper PMC11842024",
  "about": "“Reversible male contraception by targeted inhibition of serine/threonine kinase 33” (Science (New York, N.Y.), 2024)",
  "key": {"CLK1": {"target": "CLK1 (Homo sapiens, UniProt P49759)", "sequence (P49759 whole entry)": "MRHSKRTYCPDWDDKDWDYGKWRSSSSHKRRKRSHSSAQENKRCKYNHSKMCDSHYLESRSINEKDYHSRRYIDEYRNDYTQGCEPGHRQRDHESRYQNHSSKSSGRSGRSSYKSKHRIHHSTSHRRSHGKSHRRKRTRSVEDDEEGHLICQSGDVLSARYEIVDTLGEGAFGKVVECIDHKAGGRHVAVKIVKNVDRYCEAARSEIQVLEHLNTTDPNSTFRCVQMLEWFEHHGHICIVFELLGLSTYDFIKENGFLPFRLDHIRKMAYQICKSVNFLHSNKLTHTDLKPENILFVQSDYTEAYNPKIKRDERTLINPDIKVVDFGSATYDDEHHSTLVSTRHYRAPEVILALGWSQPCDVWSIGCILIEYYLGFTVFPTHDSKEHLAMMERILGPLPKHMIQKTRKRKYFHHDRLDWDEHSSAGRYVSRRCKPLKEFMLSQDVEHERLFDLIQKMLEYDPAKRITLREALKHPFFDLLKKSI", "experiment": "NanoBRET K192 assay (Promega)", "format": "cell-based", "set-up": "host or cells: HEK293 (HEK293T cultured)", "conditions": "HEK293 cells", "protocol": "(§1) NanoBRET Target Engagement K192 assay. HEK293 cells (ATCC) were cultured in DMEM (Gibco) + 10% FBS (Seradigm) and incubated in a humidified 37°C/5% CO2 incubator. The NanoBRET Target Engagement K192 Kinase Selectivity System (Promega) contains 192 unique transfection-ready NanoLuc/Kinase fusions, pre-diluted in either transfection carrier DNA or relevant cyclin DNA. These NanoLuc/Kinase fusion constructs were transfected into HEK293 cells using Fugene HD (Promega) according to the manufacturer’s protocol. Briefly, 10 µL of a 20 µg/mL DNA solution was added to white, TC-treated 96-well assay plates (Corning), followed by 30 µL of a diluted Fugene HD solution (20 µL Fugene/1 mL Opti-MEM). After transfection complex formation, HEK293 cells were resuspended at 3.3 × 105 c/mL in Opti-MEM + 1% FBS and added at a volume of 60 µL per well, to result in approximately 20000 cells/well. Cells were incubated in a humidified 37°C/5% CO2 incubator for 20 hours. Tracer K-10 (Promega) was prepared at a 100× concentration in DMSO (Sigma) and diluted to a working concentration of 10× in tracer dilution buffer (12.5 mM HEPES, 31.25% PEG400, pH 7.5) (Promega). Test compounds were prepared as concentrated stock solutions in DMSO and diluted in Opti-MEM to prepare 10× working stocks. Cells were equilibrated with test compounds and Tracer K-10 for 2 hours prior to BRET measurements. For target engagement analysis, Tracer K-10 was added to cells at one of 4 […]\n(§2) manufacturer’s protocol. To measure BRET, NanoBRET NanoGlo Substrate and Extracellular NanoLuc Inhibitor (Promega) were added according to the manufacturer’s protocol, and filtered luminescence was measured on a GloMax Discover luminometer equipped with 450 nm BP filter (donor) and 600 nm LP filter (acceptor), using 0.5 s integration time. Milli-BRET units are calculated by multiplying the raw BRET units by 1000.\n(§3) For Fractional Occupancy determination, the following equation was used:\n(§4) % Occupancy = [1-(X-Z)/(Y-Z)]×100\n(§5) Where X = BRET in the presence of the test compound and Tracer K10, Y = BRET in the presence of Tracer K10 only, and Z = Full occupancy, or BRET in the absence of the test compound and […]\n(§6) Tracer K10. […]"}, "CLK2": {"target": "CLK2 (Homo sapiens, UniProt P49760)", "sequence (P49760 whole entry)": "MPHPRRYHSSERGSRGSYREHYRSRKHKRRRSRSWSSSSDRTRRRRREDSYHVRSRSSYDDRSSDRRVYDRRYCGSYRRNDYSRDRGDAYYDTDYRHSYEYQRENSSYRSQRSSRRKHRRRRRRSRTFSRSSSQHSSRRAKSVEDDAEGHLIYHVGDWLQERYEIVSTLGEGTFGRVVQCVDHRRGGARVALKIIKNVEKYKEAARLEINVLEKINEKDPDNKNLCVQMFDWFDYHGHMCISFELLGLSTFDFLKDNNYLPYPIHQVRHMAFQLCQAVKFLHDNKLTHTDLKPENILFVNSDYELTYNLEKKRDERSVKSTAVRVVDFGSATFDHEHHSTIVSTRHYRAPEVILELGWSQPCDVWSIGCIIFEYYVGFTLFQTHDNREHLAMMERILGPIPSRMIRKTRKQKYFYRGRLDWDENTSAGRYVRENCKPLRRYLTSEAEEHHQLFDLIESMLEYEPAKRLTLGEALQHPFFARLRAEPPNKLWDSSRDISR", "experiment": "NanoBRET K192 assay (Promega)", "format": "cell-based", "set-up": "host or cells: HEK293 (HEK293T cultured)", "conditions": "HEK293 cells", "protocol": "as §1, §2, §3, §4, §5, §6"}, "CLK4": {"target": "CLK4 (Homo sapiens, UniProt Q9HAZ1)", "sequence (Q9HAZ1 whole entry)": "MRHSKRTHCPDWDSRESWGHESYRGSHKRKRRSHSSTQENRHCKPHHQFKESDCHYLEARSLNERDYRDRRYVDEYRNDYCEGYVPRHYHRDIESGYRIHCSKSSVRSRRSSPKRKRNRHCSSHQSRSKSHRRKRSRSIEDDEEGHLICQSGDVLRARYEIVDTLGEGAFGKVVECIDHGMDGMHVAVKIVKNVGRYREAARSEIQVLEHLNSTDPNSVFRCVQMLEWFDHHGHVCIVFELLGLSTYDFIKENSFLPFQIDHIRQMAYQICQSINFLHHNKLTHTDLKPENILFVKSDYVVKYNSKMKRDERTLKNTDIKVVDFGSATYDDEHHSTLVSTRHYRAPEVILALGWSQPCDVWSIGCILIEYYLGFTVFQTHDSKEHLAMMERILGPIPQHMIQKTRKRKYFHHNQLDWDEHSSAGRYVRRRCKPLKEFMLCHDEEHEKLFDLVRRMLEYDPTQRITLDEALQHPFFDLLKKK", "experiment": "NanoBRET K192 assay (Promega)", "format": "cell-based", "set-up": "host or cells: HEK293 (HEK293T cultured)", "conditions": "HEK293 cells", "protocol": "as §1, §2, §3, §4, §5, §6"}, "[1]": {"experiment": "Pharmacokinetics (PK) of CDD-2807 in mice", "format": "in vivo", "conditions": "plasma; for AUC(0-inf) / AUC(0-t) / Cmax / Tmax / MRT inf / half-life: male, C57BL/6NJ, mouse; for MRT inf: read-out: MRT0-∞", "protocol": "Pharmacokinetics (PK) of CDD-2807 in mice. The pharmacokinetic studies (72) of CDD-2807 were performed at three doses via intraperitoneal (i.p.) injection and oral (p.o.) administration.\nCDD-2807 was dissolved in 10% Captisol containing 5% DMSO to prepare the solutions of 0.5 mg/mL, 2.5 mg/mL and 5.0 mg/mL. Twelve male mice (strain: C57BL/6NJ, 8−12 weeks) were divided equally and randomly into 4 groups (n = 3 for each dose). One group of mice were administered 5 mg/kg CDD-2807 (i.p., 10 µL/g of 0.5 mg/mL solution), the second group 25 mg/kg CDD-2807 (i.p., 10 µL/g of 2.5 mg/mL solution), the third group 5 mg/kg CDD-2807 (p.o., 10 µL/g of 0.5 mg/mL solution), and the fourth group 50 mg/kg CDD-2807 (p.o., 10 µL/g of 5.0 mg/mL solution). At 0, 5, 10, 15, 30 min, 1, 2, 4, 6, 8, 24 h post-dose, around 20 µL of blood was collected from the tail vein and anti-coagulated by heparin. The blood samples were centrifuged at 2000 g for 3 min at 4°C, and the plasma samples were transferred to tubes and stored at −80°C before analysis. All the samples were analyzed by the Thermo TSQ Quantis MS coupled with a Thermo Vanquish UHPLC (San Jose, CA). CDD-2807 was separated on a Luna C18 column (1 mm × 50 mm, 1.6 µm, Phenomenex, Torrance, CA), and eluted by a water-acetonitrile mobile phase system (both containing 0.1% formic acid, v/v) at the flow rate of 0.15 mL/min. CDD-2807 was monitored under the SRM mode coupled with a positive ESI source. The SRM ion pairs were 447→321 for CDD-2807. The ion spray voltage was set at 3500 V. High-purity nitrogen was used as the sheath gas (35 arbitrary unit), auxiliary gas (7 arbitrary unit), and high-purity argon was used as the collision gas. The temperatures of the ion transfer tube and the vaporizer were set at 300°C and 275°C, respectively. The concentration of CDD-2807 in plasma was quantified using individual calibration curves. The calibration curve was regressed with a weight of 1/x2 with high linearity (r2 >0.99). PK parameters, including half-time (t1/2), area under the plasma concentration– time curve from zero to infinity (AUC0–∞), clearance normalized by the bioavailability (CL/F), volume of distribution normalized by the bioavailability (Vd/F), and the mean residence time (MRT), were calculated by WinNonlin software (Certara, Princeton, NJ) by noncompartmental analysis. The plasma concentration–time curves were plotted in GraphPad Prism 9 (San Diego, […]"}, "[2]": {"conditions": "po, p.o. administration 5 mg/kg"}, "[3]": {"conditions": "po, p.o. administration 50 mg/kg"}},
  "note": "Read-outs that look alike come from different tables or passages of the source.",
  "data": [
    {"smiles": "O=C(c1ccc2[nH]nc(C#Cc3ccccc3-c3ccccc3)c2c1)N1CC2(CCCNC2)C1", "note": "[CDD-2807]", "values": [
      {"measurement": "receptor occupancy at 1 µM", "setting": "CLK1; HEK293, at 1 µM", "result": "83.5 ± 0.1", "unit": "%"},
      {"measurement": "NanoBRET K192 assay % Occupancy CLK1", "setting": "CLK1; at 1 µM", "result": "> 80", "unit": "%"},
      {"measurement": "receptor occupancy at 1 µM", "setting": "CLK2; HEK293, at 1 µM", "result": 89.7, "unit": "%"},
      {"measurement": "NanoBRET K192 assay % Occupancy CLK2", "setting": "CLK2; at 1 µM", "result": "> 80", "unit": "%"},
      {"measurement": "receptor occupancy at 1 µM", "setting": "CLK4; HEK293, at 1 µM", "result": "94.7 ± 0.1", "unit": "%"},
      {"measurement": "NanoBRET K192 assay % Occupancy CLK4", "setting": "CLK4; at 1 µM", "result": "> 80", "unit": "%"},
      {"measurement": "AUC(0-inf)", "setting": "[1]; ip, i.p. injection 5 mg/kg", "result": "11.2 ± 1.11", "unit": "µM·h"},
      {"measurement": "AUC(0-t)", "setting": "[1]; ip, i.p. injection 5 mg/kg", "result": "9.46 ± 1.47", "unit": "µM·h"},
      {"measurement": "Cmax", "setting": "[1]; ip, i.p. injection 5 mg/kg", "result": "2950 ± 640", "unit": "nM"},
      {"measurement": "Tmax", "setting": "[1]; ip, i.p. injection 5 mg/kg", "result": "0.33 ± 0.14", "unit": "h"},
      {"measurement": "MRT inf", "setting": "[1]; ip, i.p. injection 5 mg/kg", "result": "11.1 ± 4.43", "unit": "h"},
      {"measurement": "half-life", "setting": "[1]; ip, i.p. injection 5 mg/kg, read-out: t1/2 (converted)", "result": "11.9 ± 4.38", "unit": "h"},
      {"measurement": "AUC(0-inf)", "setting": "[1]; ip, i.p. injection 25 mg/kg", "result": "67.7 ± 12.4", "unit": "µM·h"},
      {"measurement": "AUC(0-t)", "setting": "[1]; ip, i.p. injection 25 mg/kg", "result": "55.5 ± 5.42", "unit": "µM·h"},
      {"measurement": "Cmax", "setting": "[1]; ip, i.p. injection 25 mg/kg", "result": "11900 ± 400", "unit": "nM"},
      {"measurement": "Tmax", "setting": "[1]; ip, i.p. injection 25 mg/kg", "result": "0.33 ± 0.14", "unit": "h"},
      {"measurement": "MRT inf", "setting": "[1]; ip, i.p. injection 25 mg/kg", "result": "12.2 ± 3.8", "unit": "h"},
      {"measurement": "half-life", "setting": "[1]; ip, i.p. injection 25 mg/kg, read-out: t1/2 (converted)", "result": "11.3 ± 3.41", "unit": "h"},
      {"measurement": "half-life", "setting": "[1]; ip, delivered intraperitoneally, read-out: plasma t1/2", "result": "> 11", "unit": "h"},
      {"measurement": "AUC(0-inf)", "setting": "[1]; [2]", "result": "1.85 ± 0.66", "unit": "µM·h"},
      {"measurement": "AUC(0-t)", "setting": "[1]; [2]", "result": "0.71 ± 0.07", "unit": "µM·h"},
      {"measurement": "Cmax", "setting": "[1]; [2]", "result": "60 ± 20", "unit": "nM"},
      {"measurement": "Tmax", "setting": "[1]; [2]", "result": "1.03 ± 0.96", "unit": "h"},
      {"measurement": "MRT inf", "setting": "[1]; [2]", "result": "51.2 ± 28.9", "unit": "h"},
      {"measurement": "half-life", "setting": "[1]; po, p.o. administration 5 mg/kg, read-out: t1/2 (converted)", "result": "36.1 ± 19.9", "unit": "h"},
      {"measurement": "AUC(0-inf)", "setting": "[1]; [3]", "result": "2.47 ± 0.34", "unit": "µM·h"},
      {"measurement": "AUC(0-t)", "setting": "[1]; [3]", "result": "1.88 ± 0.36", "unit": "µM·h"},
      {"measurement": "Cmax", "setting": "[1]; [3]", "result": "180 ± 90", "unit": "nM"},
      {"measurement": "Tmax", "setting": "[1]; [3]", "result": "2.67 ± 1.15", "unit": "h"},
      {"measurement": "MRT inf", "setting": "[1]; [3]", "result": "16.5 ± 2.8", "unit": "h"},
      {"measurement": "half-life", "setting": "[1]; po, p.o. administration 50 mg/kg, read-out: t1/2 (converted)", "result": "12.6 ± 1.5", "unit": "h"},
      {"measurement": "CL/F", "setting": "[1]; p.o. administration 5 mg/kg", "result": "2.91 ± 0.87", "unit": "mg/h/µM/kg"},
      {"measurement": "Vd/F", "setting": "[1]; p.o. administration 5 mg/kg", "result": "134.88 ± 26.14", "unit": "mg/µM/kg"},
      {"measurement": "CL/F", "setting": "[1]; p.o. administration 50 mg/kg", "result": "20.52 ± 3.02", "unit": "mg/h/µM/kg"},
      {"measurement": "Vd/F", "setting": "[1]; p.o. administration 50 mg/kg", "result": "376.76 ± 89.83", "unit": "mg/µM/kg"}
    ]}
  ]
}
